Data taken from BigSolDB 2.1.

C(=C\c1ccccc1)/CN1CCN(C(c2ccccc2)c2ccccc2)CC1
solubility (mole fraction)
Details	288.5 K	293.5 K	298.4 K	303.3 K	308.3 K	313.2 K
in acetonitrile	0.000877	0.00105	0.00137	0.00158	0.00204	0.00273
in isopropanol	0.00064	0.000811	0.000994	0.00127	0.00165	0.00208
in n-butanol	0.00273	0.00351	0.00412	0.00499	0.00607	0.00804
in n-butyl acetate	0.0153	0.0197	0.0226	0.0272	0.0337	0.0425
